Test results: patent US20050106639A1, “Method for quantification of AKT protein expression” (Ventana Medical Systems, Inc., priority 2000, published 2005)

Experiments:
Format in all cases: cell-based
[1] = test system: total AKT (AKT-1 plus AKT-2); experiment: Western blot of activated (phosphorylated) total AKT in HER-2/neu over-expressing cells; details: SKBR3, BR474, AU565 cells, Heregulin 10 ng/ml or Herceptin 20 mg/ml
Protocol: (§1) MDA-MB-435 and MDA-MB-435/HER-2 cells were obtained from Dr. Yu at the UTMD Anderson Cancer Center, Houston, Tex. Cells were grown in RPMI 1640 supplemented as above in 8% CO2 at 37° C. Western blotting was done as follows. Cells were lysed in lysis buffer (50 mM Tris-HCl, pH 7.4, 150 mM sodium chloride, 1 mM EDTA, 1% Nonidet P-40, 1 mM sodium orthovanadate, 1 mM sodium fluoride, 1 mM phenylmethylsulfonyl fluoride, 2 ug/ml pepstatin, 2 ug/ml leupeptin, 2 ug/ml aprotinin), centrifuged at 4° C. for 5 min at 6500 g, and protein concentration was determined with a BioRad Protein Assay Kit (BioRad, Hercules, Cailf.). Proteins were separated by electrophoresis using a Bis-Tris NuPAGE system with 1× MOPS running buffer (Novex, San Diego, Cailf.) and transferred to Hybond C-extra membrane (Amersham Pharmacia Biotech, Piscataway, N.J.). Membranes were blocked with non-fat dry milk, incubated with the appropriate antibodies, washed with PBS (phosphate buffered saline) and incubated with horseradish peroxidase-conjugated secondary antibody. […]
(§2) The activated (phosphorylated) state of total AKT (AKT-1 plus AKT-2) in cells over-expressing HER-2/neu was measured to study the functional significance of c-akt in HER-2/neu over-expressing cells and cancers. […] Activated AKT was determined by antibodies that specifically recognize the phosphorylated state of AKT protein. […]

AKT-2 = experiment: Immunoprecipitation and anti-phospho-Akt Western blot, AKT-2
Protocol: as §1, §2

AKT-1 = experiment: Immunoprecipitation and anti-phospho-Akt Western blot, AKT-1
Protocol: as §1, §2

[2] = SKBR3, BR474, AU565 cells, Heregulin 10 ng/ml or Herceptin 20 mg/ml, Western blot

Heregulin
phosphorylation of total AKT [1]: increased | level of AKT-2 phosphorylation after treatment (AKT-2; [2]): remained high | phosphorylated state of AKT-2 (AKT-2; exposure for 3 days): did not affect | AKT-1 phosphorylation (AKT-1; [2]): increased | phosphorylated state of AKT-1 (AKT-1; exposure for 3 days): down-regulation
